In experiment [1] the test system is HUVEC cells. Briefly: Capillary tube formation on a Matrigel. It is filed as cell-based, human. The settings on record: for formation of capillary tube like structures: 20 μM and 40 μM, comparative assay; for antiangiogenic activity in the tube-like formation assay in HUVEC cells: overall conclusion. As for the experimental part:
The formation of capillary tube like structures by HUVEC cells was analyzed on 24-well cell culture plates coated with an extracellular membrane matrix (Matrigel; BD Biosciences).
Matrigel was thawed at 4° C. Using precooled plates and tips, 100 μl/well of Matrigel was distributed and allowed to gelify at 37° C. for at least 30 min. Cells were seeded on the polymerized Matrigel (5 to 8×10^4 cells/well). The plate was incubated at 37° C., and tube formation was observed under a optic inverted microscope. Digital pictures were taken at different times with a camera. Tubular structures were quantified by manual counting of low power fields (25×) and inhibition percentage was expressed using untreated wells as 100%.
The formation of capillary tube-like structures by HUVEC cells was analyzed on 24-well cell culture plates coated with an extracellular membrane matrix (Matrigel; BD Biosciences). Matrigel was thawed at 4° C. Using precooled plates and tips, 100 μl/well of Matrigel was distributed and allowed to gelify at 37° C. for at least 30 min. Cells were seeded on the polymerized Matrigel (5 to 8×10^4 cells/well) in absence and presence of concentrations of 20 μM and 40 μM of each compound. The plate was incubated at 37° C., and tube formation was observed under an optic inverted microscope. Compound 1 was used as positive control.

The subject of experiment [2] is NF-κB p65 subunit. In words: NF-κB p65 nuclear translocation in LPS-stimulated J774A.1 cells (IFI). The format is cell-based, murine. The settings on record: J774A.1 induced with LPS 8 h, 40 μM (LPS only 79.4±1.2). The method, then: J774A.1 cells were grown on coverslips in 24-well plates and stimulated with 100 ng/ml LPS (Sigma) in RPMI without SFB, for 8 h at 37° C.
After incubation, cells were fixed in methanol at −20° C. for 10 min, and processed for indirect immunofluorescence (IFI) with antibodies directed against the glycoprotein D (gD) of HSV-1 and/or the p65 subunit of NF-κB. After three washes with PBS, the coverslips were inverted on a drop of a 1/100 dilution of the first antibody, mouse monoclonal anti-gD and/or rabbit polyclonal anti p65 (Santa Cruz Biotechnology) and incubated for 30 min at 37° C., and then subjected to three additional washes with PBS. […]
The images obtained with a 40× magnification were imported into NIH Image J 1.34s program (designed by Wayne Rasband, NIMH, Bethesda). […] We analyzed the total and nuclear fluorescence of the individual cells and a mean fluorescence density was obtained for each. To compare the distribution of fluorescence within the cell, the results were analyzed in a spreadsheet (Excel®). The total fluorescence intensity or nuclear density was calculated as the total or nuclear average per total or nuclear area, respectively. Then, we calculated the percentage of nuclear intensity or the percentage of nuclear intensity with respect to the total intensity for each cell. […]

Experiment [3] relates to IL-6. In words: IL-6 secretion in LPS-stimulated J774A.1 macrophages (ELISA). The settings on record: J774A.1 stimulated with 100 ng/ml LPS 8 h, 40 μM. It is filed as cell-based, murine. As for the experimental part:
J774A.1 cells grown in 24-well plates were incubated at 37° C. with 100 ng/ml of LPS, in duplicate. After 8 h, supernatants were harvested and murine IL-6 was quantified by commercial ELISA sets (BD OptEIA™, Becton Dickinson, USA) according to manufacturer instructions.
Background: In an ELISA, binding on a coated surface is turned into a signal by an enzyme label.

Experiment [4] has as its system TNF-α. In words: TNF-α secretion in LPS-activated macrophages. It is filed as cell-based. The settings on record: Macrophage, read-out: inhibitory concentration 50% (IC50), TNF-α secretion.
Experiment [5] deals with TNF-α. The settings on record: human epithelial cells derived from ocular tissues; earlier work; cited from earlier work.
Experiment [6] deals with HSV-1. The settings on record: murine model of HSV-1 corneal infection; previously reported; cited from earlier work.
Experiment [7] deals with IL-6. The settings on record: human epithelial cells derived from ocular tissues; earlier work; cited from earlier work.
Experiment [8] deals with TNF-α. The settings on record: LPS-stimulated macrophages in vitro; earlier work; cited from earlier work.

With `CC[C@@H](C(C)C)[C@H](O)[C@@H](O)[C@@H](C)[C@H]1CCC2C3C[C@H](F)C4=CC(=O)CC[C@]4(C)C3CC[C@@]21C` (stereo partly shown) [Compound III], in experiment [1], the “formation of capillary tube like structures” value was “develop the formation of capillary tube-like structures in same manner than control cells without treatment” and the “antiangiogenic activity in the tube-like formation assay in HUVEC cells” value was “not present”.
As for `CC[C@@H](C(C)C)[C@H](O)[C@@H](O)[C@@H](C)[C@H]1CC[C@H]2[C@@H]3CCC4=CC(=O)C=C[C@]4(C)[C@H]3CC[C@]12C` [Compound 2, (22S,23S)-22,23-dihydroxystigmasta-1,4-dien-3-one], the “formation of capillary tube like structures” value in experiment [1] is recorded as “showed inhibitory activity”.
As to `CC[C@@H](C(C)C)[C@H](O)[C@@H](O)[C@@H](C)[C@H]1CCC2C3C[C@H](F)C4=CC(=O)C=C[C@]4(C)C3CC[C@@]21C` (stereo partly shown) [Compound IV], in experiment [1], the “formation of capillary tube like structures” value is listed as “develop the formation of capillary tube-like structures in same manner than control cells without treatment” and the “antiangiogenic activity in the tube-like formation assay in HUVEC cells” value is “not present”.
Regarding `C[C@@H]1C[C@H]2[C@@H]3CCC4=CC(=O)C=C[C@]4(C)[C@@]3(F)[C@@H](O)C[C@]2(C)[C@@]1(O)C(=O)CO` [DEX, Dexamethasone, reference compound], the “percentage of cells positive for NF-κB translocation to the nucleus” value in experiment [2] is on record as 100%. In experiment [3], this compound came in with an IL-6 level of 637.1 ± 3.8 pg/mL. The IC50 in experiment [4] was 48 µM.
As for `CC[C@@H](C(C)C)[C@H](O)[C@@H](O)[C@@H](C)[C@H]1CC[C@H]2[C@@H]3CC(=O)[C@@]4(O)C[C@@H](Br)CC[C@]4(C)[C@H]3CC[C@]12C` [Compound 6b, (22S,23S)-3β-bromo-5α,22,23-trihydroxystigmastan-6-one], the “secretion of TNF-α” value in experiment [5] is given as “modulates”. Further, in experiment [6], the “anti-HSV-1 activity in vivo” value is given as “does not exert an anti-HSV-1 activity in vivo” and the “incidence of HSK” value is reported as “significantly decreases”. For the same compound, the “secretion of IL-6” value in experiment [7] is given as “modulates”. Besides, in experiment [8], the “production of TNF-α” value is “hinders”.

The values above are taken from patent US9187518B2, “Antiangiogenic brassinosteroid compounds” (CONSEJO NACIONAL DE INVESTIGACIONES CIENTIFICAS Y TECNICAS …, priority 2011, dated 2015).
